Literature values in patent US20210205361A1, “COMPOSITIONS AND METHODS FOR CANCER IMMUNOTHERAPY” (priority 2016, published 2021).

Experiments:
[1] = tested on: advanced, treatment-refractory malignancies; conditions: subjects with non-small cell lung cancer (NSCLC)
[2] = tested on: diffuse large B-cell lymphoma (DLBCL)
recurrent multifocal GBM = conditions: two pediatric patients refractory to standard therapies

**Q.** Which clinical activity [1] does the source give for “BMS-936558: fully human IgG4 monoclonal antibody targeting PD-1” here?
**A.** The clinical activity was “substantial clinical activity”.

**Q.** Which “subjects progression-free at the end of the follow-up period” value ([2]; DLBCL subjects after autologous stem cell transplantation, control group 47%) does the source give for “CT-011: humanized IgG1 monoclonal antibody against PD-1” here?
**A.** Its value is 70%.

**Q.** What about the subjects alive ([2]; DLBCL subjects after autologous stem cell transplantation, control group 62%) of the same substance?
**A.** Its subjects alive is 82%.

**Q.** And the “activity of natural killer cells” value ([2]; finding of the phase II trial)?
**A.** The value was “augments”.

**Q.** Which response (recurrent multifocal GBM) does the source give for “nivolumab: immune checkpoint inhibitor, anti-PD1 antibody” here?
**A.** Its response is “remarkable and durable responses”.
